Assay results from article PMC10144242, “Design, Synthesis, In Vitro, and In Silico Insights of 5-(Substituted benzylidene)-2-phenylthiazol-4(5H)-one Derivatives: A Novel Class of Anti-Melanogenic Compounds” (Molecules, 2023).

System: tyrosinase protein expression in B16F10 cells
Experiment: Western blot of tyrosinase protein in IBMX/α-MSH-stimulated cells
Type: cell-based, murine
Settings: for tyrosinase expression level relative to untreated control: B16F10, 20 µM, IBMX 200 µM + α-MSH 1 µM, stimulator alone 6.6-fold (for 1), 5.7-fold (for 2); for effect on tyrosinase expression levels: B16F10, 5, 10, 20 µM, IBMX + α-MSH
Description: We investigated whether the derivatives 1 and 2 could influence the expression of tyrosinase protein using Western blotting. […] At 20 µM, derivatives 1 and 2 reduced the tyrosinase expression levels that increased during the stimulator treatment to 4.4- and 3.1-fold, respectively, implying that derivatives 1 and 2 may, in part, contribute to their anti-melanogenic actions by inhibiting tyrosinase expression.
After stimulating murine melanoma (B16F10) cells with α-MSH and IBMX for 24 h in the presence or absence of the tested derivatives at the indicated concentrations, the cells were lysed with lysis buffer containing protease and phosphatase inhibitors. Protein concentrations were determined using a BCA protein assay kit, according to the manufacturer’s instructions (Pierce, Rockford, IL, USA). Lysate proteins in each sample (10–20 µg) were subjected to 9% sodium dodecyl sulfate–polyacrylamide gel electrophoresis and electrophoretically transferred to a PVDF membrane (Millipore, Billerica, MA, USA) using a semi-dry system (Bio-Rad, Hercules, CA, USA). The membranes were incubated with 5% non-fat milk in TBST (0.1 M Tris-HCl, pH 7.5, 1.5 M NaCl, and 1% Tween 20) for 2 h. After blocking, the membranes were incubated with primary antibodies at 4 °C overnight. The following antibodies were used: tyrosinase and β-actin primary antibodies, as well as horseradish peroxidase-conjugated anti-mouse and anti-goat secondary antibodies (Santa Cruz Biotechnology, Dallas, TX, USA). The protein bands were visualized using the SuperSignal West Pico Chemiluminescence assay kit (Advansta, San Jose, CA, USA) and the Davinch–Chem program (Davinch-K, Seoul, Republic of Korea). The relative intensities were acquired using CS Analyzer 3.2 (Densitograph) image analysis software (http://www.attokorea.co.kr, accessed on 21 November 2022).
Figure 13 Effects of (Z)-BPT derivatives 1 and 2 on tyrosinase expression. Tyrosinase expression levels were evaluated in the presence of a stimulator (1 µM of α-MSH plus 200 µM of IBMX) with various concentrations (5, 10, and 20 µM) of derivatives 1 and 2 in B16F10 cells. ^### p < 0.001; * p < 0.05, and ** p < 0.01.

| Structure (SMILES) | tyrosinase expression level relative to untreated control | effect on tyrosinase expression levels |
| --- | --- | --- |
| O=C1N=C(c2ccccc2)S/C1=C\c1ccc(O)cc1 [Compound 1, (Z)-5-(4-Hydroxybenzylidene)-2-phenylthiazol-4(5H)-one] | 4.4 fold | significantly reduced the tyrosinase expression levels in a dose-dependent manner |
| O=C1N=C(c2ccccc2)S/C1=C\c1ccc(O)cc1O [Compound 2, (Z)-5-(2,4-Dihydroxybenzylidene)-2-phenylthiazol-4(5H)-one] | 3.1 fold | significantly reduced the tyrosinase expression levels in a dose-dependent manner |
